Compound | melting point [°C]
CCOC(=O)N(CCOc1ccc(Oc2ccc(F)cc2)cc1)C(=O)OCC | 52 to 53
CCCCCCCCCc1ccc(C(CCCCC(=O)O)SCCC(=O)O)cc1 (centres undefined) | 61 to 62
Cc1oc(-c2ccccc2)nc1CCOc1ccc(CN(O)C(N)=O)cc1 | 148 to 150
Cc1ccc(S(=O)(=O)NC(=O)c2cccc(OCc3csc(-c4ccccc4)n3)c2)cc1 | 170 to 172
COC(=O)c1ccc(Cn2cc(/C=C/C(=O)N3CCCC3)c3ccc(/C=C/C(=O)N4CCCC4)cc32)c(OC)c1 | 226 to 228
CN(C)Cc1ccc(CSCCNC2=NS(=O)(=O)C(S(C)(=O)=O)=C2N)o1 | 187 to 189
O=C1Nc2ccc(F)nc2N2CCNCC12 (centres undefined) | 305 to 308
O=C(O)C1COc2ccc(O)cc2O1 (centres undefined) | 204
O=C(Nc1ccc2[nH]c(=O)[nH]c2c1)C(=O)N1CCC(Cc2ccc(Cl)cc2)CC1 | 299 to 300
CN1CC[C@@H](c2c(O)cc(O)c3c(=O)cc(-c4ccc(N)cc4Br)oc23)[C@@H]1CO | 208
CSc1nc(CO)c(CO)n1C | 119 to 120
COCCOc1ccc(C=O)c(O)c1 | 64.5 to 65.5
CC1(O)c2ccccc2COc2ccc(C(=O)O)cc21 (centres undefined) | 258
CC1OC(n2cnc3c(S(N)(=O)=O)nc(N)nc32)C(O)C1O (centres undefined) | > 90
CCOC(=O)CCC12CCC(=O)N1C(=O)CC2 | 104 to 105
CCCCCCCCCCCCNC(=O)c1cc(Br)c(OCCNC(N)=O)c(-c2cccc(C(F)(F)F)c2)c1 | 122 to 125
O=C(On1nnc2ccc(Cl)cc21)c1ccccc1 | 132
N#CCCn1[nH]c(C#N)c(N=Nc2ccc(S(=O)(=O)Cl)cc2)c1=O | 178 to 180
N#CCOc1ccc(-c2ccccc2)cc1 | 81 to 83
Cc1cc(C(=O)c2ccc(F)c(C)c2)ccc1F | 128 to 130
COc1cc2c(cc1Br)CCOC2c1ccc([N+](=O)[O-])cc1 (centres undefined) | 144 to 147
CC(C)(NS(=O)(=O)c1ccc(Oc2ccc(F)cc2)cc1)C(=O)NO | 133 to 134
CCN1C(=O)C2=C(c3cccc(Cl)c3)N(CC)C(=O)C2=C1c1cccc(Cl)c1 | 203 to 205
C(=C\c1nc(COc2ccc(CCCn3ccnn3)cc2)co1)/c1ccccc1 | 142 to 143
CCOC(=O)c1nc2scc(COC(=O)c3ccc(CO)cc3)c2c(=O)[nH]1 | 196

Compound | melting point [°C]
Cc1cc(C)c(/C=C2\C(=O)N(COC(=O)CCC(=O)O)c3ccccc32)[nH]1 | 160 to 163
CC(=O)Nc1ccc(F)cc1SCC#N | 97 to 100
O=Cc1ccc(N(Cc2ccccc2)Cc2ccccc2)cc1[N+](=O)[O-] | 67 to 70
CCOC(=O)CC(=O)Nc1sc(CC)cc1C(=O)c1ccccc1Cl | 56 to 57
CN1CCC(C2CCN(c3ncc4ncnc(Nc5ccc(F)c(Cl)c5)c4n3)CC2)CC1 | 159 to 162
CC(=O)n1nc(-c2cccc([N+](=O)[O-])c2)n2nc(C)cc12 | 207 to 210
COC1=C(Br)C(=O)O/C1=C\c1ccccc1C(F)(F)F | 136 to 138
COc1ccc2c(c1)c(Cc1cc(=O)n(-c3cccc(F)c3)[nH]1)c(C)n2C(=O)c1ccc(Cl)cc1 | 162 to 164
COc1cc(OS(=O)(=O)c2ccc(N3CCN(C)C3=O)cc2)cc(OC)c1OC | 160 to 162
O=C(NC(c1ccccc1)c1ccccc1)N1CCC(C(=O)O)(c2ccccc2)CC1 | 208
COc1ccc(-c2cnnc(-c3ccc(C(F)(F)F)cc3F)c2N)cc1 | 215 to 216
O=C1NC(=O)C(=Cc2ccc3c(c2)CCC(Cc2ccccc2)N3Cc2ccccc2)S1 (centres undefined) | 199 to 201
COC(=O)NCC1Cc2cc(Cl)cc(C3CCCCC3)c2O1 (centres undefined) | 100 to 103
COC(=O)CCN1CCC(=C2c3sccc3CCn3ccnc32)CC1 | 108
O=C1C(=Cc2cccc3ccccc23)CCc2cc(OCCn3ccnc3)ccc21 | 147 to 148
Cn1nc(CO)nc1NCCCCOc1cccc(CN2CCCCC2)c1 | 82 to 83
C=CCc1cc2c(c(CC=C)c1O)CCC(=O)N2Cc1ccc(C(=O)O)cc1 | 242 to 246
COc1ccc2cc(-c3nc(-c4ccc(C)cc4)no3)c(=O)oc2c1 | 227
O=C1N(Cc2ccc(-c3ccccc3Cl)o2)c2ccccc2C12COc1cc3c(cc12)OCO3 (centres undefined) | 148 to 150
O=C(O)C(O)(CC1CCCCC1)c1ccccc1 (centres undefined) | 138 to 140
COC(=O)C1Cc2ccc([N+](=O)[O-])cc2CN1 (centres undefined) | 133 to 135
CS(=O)c1ccc(Oc2ccc(Cl)c(Cl)c2)nc1 (centres undefined) | 88 to 90
COc1ccc(C(=O)c2cc(F)cc(F)c2)cc1 | 90
O=C(O)CCCNC(=O)COc1ccccc1 | 91 to 94
CCOC(=O)c1ccc2c(c1)sc1ccccc12 | 74 to 78

Compound | melting point [°C]
O=c1c(CCCc2ccncc2)cc2cccnc2n1-c1cccc([N+](=O)[O-])c1 | 209 to 210
CC(C)c1cc(C(C)C)c(S(=O)(=O)n2ccc3ccccc32)c(C(C)C)c1 | 131 to 133
Cc1ccc(S(=O)(=O)OCCn2c(=NC(=O)C(F)(F)F)sc3cc(C(F)(F)F)ccc32)cc1 | 163
COC(=O)CC(NSc1ccccc1[N+](=O)[O-])C(=O)O (centres undefined) | 108 to 109
Cc1cc(-c2cc(F)c(F)cc2-c2ccc(S(C)(=O)=O)cc2)ccc1Cl | 152
CON=Cc1ccc2c(c1)ncn2-c1cccc(-c2cccs2)c1 | 184 to 185
CCC(O)(c1ccc(OCCN(C(C)C)C(C)C)cc1)c1ccccc1OC (centres undefined) | 46 to 47
BrCCCCCCCCn1nnc(-c2ccccc2)c1-c1ccccc1 | 90 to 91
O=C(O)CCNC(=O)C(=Cc1ccc(-c2ccccc2)cc1)CS | 125
CCCn1c(C#N)c(Cl)n(-c2ccc(Cl)cc2)c1=O | 102 to 103
O=C(O)COc1nc2cc(Cl)c3cccnc3c2o1 | 214 to 215
O=C(c1ccc2nonc2c1)N1CCOCC1 | 148 to 150
CN(c1nnc(C(F)(F)F)s1)C1CCN(Cc2cccc(F)c2)CC1 | 80.5
CCOC(=O)/C=C/c1ccc2c(c1)nc(N)c1nc(CC)n(CC3CCOCC3)c12 | 209 to 210
C=CCNC(=O)N1CCC1c1ccccc1F (centres undefined) | 119 to 120
CCCCCCCCCCCCSc1n[nH]c(-c2ccc(C(C)(C)C)cc2)n1 | 87 to 92
Cn1c(=O)nc(NCCCN2CCN(C(c3ccccc3)c3ccccc3)CC2)c2ccccc21 | 121 to 124
CCC1(F)CN(C2CCCC2)c2nc(Nc3ccc(C(=O)NC4CCN(C)CC4)cc3OC)ncc2N(C)C1=O (centres undefined) | 149 to 153
CC(C)C(=O)CC(=O)c1ccc(C(=O)c2ccccc2)cc1 | 76.5 to 78
CCOC(=O)c1cn(-c2ccccc2)c2ccc(CN3CCOCC3)cc2c1=O | 159 to 161
CC1CC(C(=O)Nc2ccccc2)(C(=O)OC(C)(C)C)N(C(=O)CNC(=O)Nc2cccc(C(=O)O)c2)C1c1ccccc1 (centres undefined) | 238
CC1(C#N)C(=O)C2=C(c3ccccc3)NC(=O)C2=C1c1ccccc1 (centres undefined) | 299 to 301
CN1CCC2(CC1)CNc1cc(Cl)ccc12 | 172 to 173
COc1cccc([C@H]2O[C@H](CC(=O)Nc3cc(C(=O)O)ccc3F)C(=O)N(CC(C)(C)COC(C)=O)c3ccc(Cl)cc32)c1OC | 146 to 149
CCOC(=O)c1c(C(=O)Nc2ccc(Cl)cc2C)cccc1[N+](=O)[O-] | 164 to 165

Compound | melting point [°C]
COC(=O)c1ccc(Oc2ccc(NC(=O)c3ccc([N+](=O)[O-])cc3Br)cc2NC(=O)c2ccc([N+](=O)[O-])cc2Br)cc1C(=O)OC | 138 to 142
CC(C)N1CC(Oc2ccc(-c3cccc(N)n3)c3ccccc23)C1 | 120 to 135
O=C(CCc1ccc(F)cc1)c1cccnc1F | 73 to 74
CS(=O)(=O)C(=C1CN(C(c2ccccc2)c2ccccc2)C1)c1ccc(F)cc1 | 186
Cc1cnc2sc(S(=O)(=O)Cc3ccccc3)nn2c1=O | 171 to 173
O=C(CCc1ccc(NC2=NCCN2)cc1)c1ccc(F)cc1 | 190 to 191
C(=C\c1nc(COc2ccc(CCCn3nccn3)cc2)co1)/c1ccccc1 | 103 to 104
Cc1ccc([N+](=O)[O-])c(C=C2C(=O)NC(=O)N2C)c1C | 195 to 198
COc1cccc(OC)c1Cn1cnc2ccc(O)cc2c1=O | 243 to 245
CS(=O)(=O)C(=C1CN(C(c2ccccc2)c2ccccc2)C1)c1cccc(Cl)c1Cl | 201
CC1(CCl)CN(C2CCN(c3cccc(OC(F)(F)F)c3)C2=O)C1=O (centres undefined) | 104 to 106
COc1cc(-c2nc3sccn3c2-c2ccnc(NC3CCN(S(=O)(=O)C4CC4)CC3)n2)ccc1F | 146 to 148
O=C(CCS(=O)C(c1ccccc1)c1ccccc1)NO (centres undefined) | 159 to 160
COc1cc2c(cc1OC)N(C(=O)OCc1ccccc1)C(C)C(=CO)C2=O (centres undefined) | 106 to 110
CCCc1c(OCCCOc2ccc(N)cc2)ccc2c1OC(CCC(=O)OCC)(CCC(=O)OCC)CC2=O | 126 to 127
COc1cccc(N(C)C(=O)c2ncc(-c3cccc(C)c3)s2)c1 | 85
COc1cc(N)c(Cl)cc1C(=O)NCC1CCN(CCCCCNC(=O)Nc2ccccc2)CC1 | 214 to 217
CCCCCCOc1c(C=O)ccc2c1C=CC(C=O)(OCCCCCC)C2 (centres undefined) | 50 to 52
Cc1ccc(CN2C(=O)C(CCO)Oc3ccccc32)cc1 (centres undefined) | 92 to 94
CCOc1ccc(/C=C/c2nc3c(c(=O)n(CC)c(=O)n3CC)n2C)cc1 | 185 to 186
O=CNc1ccccc1N1CCc2cc(Cl)ccc21 | 126 to 129
CC(N)=NC(=Nc1ccccc1)N1CCOCC1 | 146 to 148
CN(C)CCCC1CCCCN1C(=O)N1c2ccccc2C(=O)Nc2cccnc21 (centres undefined) | 142 to 144
Cc1nc(C(=O)Nc2cccc(Cl)c2Cl)c(C)n1-c1ccccc1 | 127 to 129
